# Source: the supplement of paper PMC10307832
# Legend:
# Assay in all cases: relative viability (nuclei count vs DMSO), 5 days (fraction); higher = more cells survive
# [1] = compound: C1=CC2=NC=CN=C2C=C1/C=C/3\C(=O)NC(=O)S3 + NC(=O)Nc1cc(-c2cccc(F)c2)sc1C(=O)N[C@H]1CCCNC1 [AZD7762] (partner 0.2 µM)
# Procedure, shortened: (§1)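 Cells from lung cancer lines were seeded into 1536-well plates and, one day later, dosed by pin tool. Treatments were either a single drug or a fixed dose of an anchor drug with five library-drug doses (not always all listed) in √10 steps. After 5 days, nuclei were stained in a one-step fixation (final 0.05% Triton X-100, 1% formaldehyde, 1 ug/ml Hoechst) and counted on 4× images, and relative viability is the treated-to-vehicle nuclei ratio, as the median of duplicate plates.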
# [2] = compound: C1=CC2=NC=CN=C2C=C1/C=C/3\C(=O)NC(=O)S3 + O=C(c1cc(Cc2n[nH]c(=O)c3ccccc23)ccc1F)N1CCN(C(=O)C2CC2)CC1 [Olaparib] (partner 8 µM)
# Procedure, shortened: as §1
# [3] = compound: CCN1CCN(c2ccc(Nc3cc(N(C)C(=O)Nc4c(Cl)c(OC)cc(OC)c4Cl)ncn3)cc2)CC1 [BGJ398] + C[C@@H](Oc1cc(-c2cnn(C3CCNCC3)c2)cnc1N)c1c(Cl)ccc(F)c1Cl [Crizotinib] (partner 1 µM)
# Procedure, shortened: as §1
# [4] = compound: CCN1CCN(c2ccc(Nc3cc(N(C)C(=O)Nc4c(Cl)c(OC)cc(OC)c4Cl)ncn3)cc2)CC1 [BGJ398] + COc1cc2c(Oc3ccc(NC(=O)C4(C(=O)Nc5ccc(F)cc5)CC4)cc3F)ccnc2cc1OCCCN1CCOCC1 [Foretinib] (partner 0.25 µM)
# Procedure, shortened: as §1
Cell Line,relative viability ([1]; first compound 0.02 µM),relative viability ([1]; first compound 0.06325 µM),relative viability ([1]; first compound 0.2 µM),relative viability ([1]; first compound 0.6325 µM),relative viability ([1]; first compound 2 µM),relative viability ([2]; first compound 0.02 µM),relative viability ([2]; first compound 0.06325 µM),relative viability ([2]; first compound 0.2 µM),relative viability ([2]; first compound 0.6325 µM),relative viability ([2]; first compound 2 µM),relative viability ([3]; first compound 0.01 µM),relative viability ([3]; first compound 0.1 µM),relative viability ([3]; first compound 0.3162 µM),relative viability ([3]; first compound 1 µM),relative viability ([4]; first compound 0.01 µM),relative viability ([4]; first compound 0.1 µM),relative viability ([4]; first compound 0.3162 µM),relative viability ([4]; first compound 1 µM),relative viability ([3]; first compound 0.03162 µM),relative viability ([4]; first compound 0.03162 µM)
HCC-827,0.218,0.155,0.261,0.265,0.114,0.654,0.528,0.585,0.593,0.662,0.964,0.92,0.973,0.938,0.926,1.02,1,1.13,–,–
HOP-62,0.847,0.91,0.516,0.434,0.685,0.481,0.389,0.357,0.452,0.424,0.755,0.861,1.13,0.737,0.939,1.18,1.19,1.07,1,1.13
LC-2-ad,0.768,0.817,0.848,0.798,0.619,0.63,0.811,0.692,0.611,0.344,0.446,0.444,0.487,0.476,1.05,1.02,0.963,0.99,0.451,0.839
LCLC-97TM1,0.21,0.219,0.253,0.269,0.113,0.354,0.372,0.36,0.334,0.281,0.34,0.317,0.463,0.267,0.813,0.947,0.925,1.03,0.335,0.923
LCLC-103H,0.658,0.886,0.828,0.749,0.629,0.75,0.788,0.727,0.725,0.729,1.02,1.03,0.96,0.827,0.79,0.755,0.746,0.541,1.03,0.765
LK-2,0.43,0.538,0.466,0.4,0.14,0.739,0.798,0.758,0.702,0.348,0.206,0.214,0.224,0.231,1.28,0.897,0.618,0.309,0.227,0.947
LOU-NH91,0.74,0.755,0.797,0.733,0.55,0.845,0.925,0.892,0.883,0.85,0.724,0.688,0.569,0.728,0.943,0.975,0.563,0.951,0.506,–
LU99A,0.392,0.352,0.369,0.36,0.223,0.28,0.416,0.276,0.243,0.26,0.532,0.595,0.525,0.479,0.761,0.855,0.897,0.756,0.49,0.804
LXF-289,1.06,0.975,1.1,0.986,1.18,0.993,0.997,1.06,1.01,1.01,0.817,0.761,0.705,0.637,0.901,0.881,0.873,0.871,0.764,0.901
NCI-H23,0.227,0.242,0.227,0.182,0.21,0.236,0.326,0.313,0.35,0.255,0.531,0.486,0.58,0.566,1.01,1.17,1.06,0.881,0.539,1.08
NCI-H322M,0.559,0.598,0.607,0.51,0.498,0.733,0.827,0.767,0.801,0.641,1.04,0.956,0.961,1.1,1.03,1.07,0.966,0.958,0.77,0.896
NCI-H358,0.556,0.406,0.621,0.473,0.204,0.559,0.663,0.65,0.667,0.419,0.631,0.533,0.574,0.722,0.61,0.682,0.718,0.951,0.779,0.725
NCI-H441,1.07,1.18,1.3,1,1.1,0.539,0.708,0.559,0.481,0.345,0.601,0.778,0.691,0.783,0.997,0.893,0.998,1.11,0.841,0.902
NCI-H460,0.581,0.438,0.576,0.621,0.456,0.391,0.361,0.438,0.45,0.397,0.59,1.02,0.892,0.826,0.999,1.08,1.06,1.04,0.861,0.994
NCI-H596,1.15,1.14,1.19,0.907,0.956,0.712,0.719,0.677,0.726,0.729,0.935,0.883,0.944,0.794,0.903,0.773,0.944,0.779,0.843,0.804
